This is an account of results in patent US9493434B2, “Substituted indenes as medicaments” (LABORATORIOS DEL DR. ESTEVE S.A., priority 2012, dated 2016).

Where a name gives a salt, the structure may show the parent alone.

T1 sequence (Q60492 whole entry): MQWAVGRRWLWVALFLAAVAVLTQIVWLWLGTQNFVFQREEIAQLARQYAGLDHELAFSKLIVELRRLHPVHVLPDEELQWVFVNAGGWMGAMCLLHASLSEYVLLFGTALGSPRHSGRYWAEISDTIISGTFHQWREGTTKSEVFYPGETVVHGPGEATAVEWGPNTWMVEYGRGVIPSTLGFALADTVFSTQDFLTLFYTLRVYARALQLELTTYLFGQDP

The test concerns the target T1, σ1-receptor (Cavia porcellus, UniProt Q60492).
T1 construct: Guinea pig brains were homogenized in 10 vols; (w/v) of Tris-HCl 50 mM 0.32 M sucrose, pH 7.4; from tissue; host or cells: guinea pig brain membranes
Briefly: σ1-receptor binding assay, [3H]-(+)-pentazocine, guinea pig brain membranes. The following applies: radioligand [3H]-(+)-pentazocine 5.0 nM, 150 min at 37° C., nonspecific binding with 1 μM haloperidol. The protocol:
Brain membrane preparation and binding assays for the σ1-receptor were performed as described (DeHaven-Hudkins, D. L., L. C. Fleissner, and F. Y. Ford-Rice, 1992, Characterization of the binding of [^3H](+)pentazocine to […] recognition sites in guinea pig brain, Eur. J. Pharmacol. 227, 371-378) with some modifications. Guinea pig brains were homogenized in 10 vols. (w/v) of Tris-HCl 50 mM 0.32 M sucrose, pH 7.4, with a Kinematica Polytron PT 3000 at 15000 r.p.m. for 30 s. The homogenate was centrifuged at 1000 g for 10 min at 4° C. and the supernatants collected and centrifuged again at 48000 g for 15 min at 4° C. The pellet was resuspended in 10 volumes of Tris-HCl buffer (50 mM, pH 7.4), incubated at 37° C. for 30 min, and centrifuged at 48000 g for 20 min at 4° C. Following this, the pellet was re-suspended in fresh Tris-HCl buffer (50 mM, pH 7.4) and stored on ice until use.
The radioligand used was [^3H]-(+)-pentazocine at 5.0 nM and the final volume was 200 μl. The incubation was initiated with the addition of 100 μl of membrane at a final tissue concentration of approximately 5 mg tissue net weight/mL and the incubation time was 150 m. at 37° C. After incubation, the membranes were collected onto pretreated glass fiber filterplate (MultiScreen-FC, Millipore), with polyethylenimine 0.1%. The filters were washed two times with 200 μl of washing buffer (50 mM Tris CI, pH=7.4) and then 25 μl of Ecoscint H liquid scintillation cocktail were added. Microplates were allowed to set for several hours and then quantified by liquid scintillation spectrophotometry (1450 Microbeta, Wallac). Nonspecific binding was determined with 1 μM haloperidol.
Compound `C1=C(CCN2CCOCC2)c2cccc(-c3cccnc3)c2C1` [Compound 34, 4-(2-(7-(pyridin-3-yl)-1H-inden-3-yl)ethyl)morpholine maleate] displayed a Ki of 82 nM.

As to `CC1=C(CCN2CCOCC2)c2cccc(-c3ccccc3)c2C1` [Compound 11, 4-(2-(2-methyl-7-phenyl-1H-inden-3-yl)ethyl)morpholine maleate], the affinity corresponds to a Ki of 28 nM.

`COc1ccc(-c2cccc3c2CC=C3CCN2CCOCC2)cc1` [Compound 21, 4-(2-(7-(4-methoxyphenyl)-1H-inden-3-yl)ethyl)morpholine maleate]: affinity was put at a Ki of 53 nM.

With `CN1CCN(CCC2=CCc3c2cccc3-c2ccncc2F)CC1` [Compound 4, 1-(2-(7-(3-fluoropyridin-4-yl)-1H-inden-3-yl)ethyl)-4-methylpiperazine maleate], the inhibition constant (Ki) is 24 nM.

`CN1CCN(CCC2=CCc3c2cccc3-c2ccc(F)nc2)CC1` [Compound 37, 1-(2-(7-(6-fluoropyridin-3-yl)-1H-inden-3-yl)ethyl)-4-methylpiperazine maleate]: the Ki worked out at 34 nM.

For the compound `CN1CCN(CCC2=CCc3cc(-c4ccncc4)ccc32)CC1` [Compound 40, 1-methyl-4-(2-(6-pyridin-4-yl)-1H-inden-3-yl)ethyl)piperazine maleate], the inhibition constant Ki came out at 143 nM.

In turn, `CN1CCN(CCC2=CCc3c2cccc3-c2ccncc2)CC1` [Compound 30, 1-methyl-4-(2-(7-(pyridin-4-yl)-1H-inden-3-yl)ethyl)piperazine maleate] registered an inhibitory constant (Ki) of 26 nM.

Compound `Fc1ccc(-c2cccc3c2CC=C3CCN2CCCCC2)cc1` [Compound 15, 1-(2-(7-(4-fluorophenyl)-1H-inden-3-yl)ethyl)piperidine maleate] registered a Ki of 8 nM.

`Fc1cccc(-c2cccc3c2CC=C3CCN2CCOCC2)c1` [Compound 18, 4-(2-(7-(3-fluorophenyl)-1H-inden-3-yl)ethyl)morpholine maleate] registered an inhibition constant Ki of 4 nM.

For the compound `Fc1ccc(-c2cccc3c2CC=C3CCN2CCOCC2)cc1` [Compound 13, 4-(2-(7-(4-fluorophenyl)-1H-inden-3-yl)ethyl)morpholine maleate], the Ki came to 4 nM.

`CN1CCN(CCC2=CCc3c2cccc3-c2cncnc2)CC1` [Compound 29, 5-(3-(2-(4-methylpiperazin-1-yl)ethyl)-1H-inden-7-yl)pyrimidine maleate] showed an inhibition constant Ki of 168 nM.

Compound `COc1ccc(-c2cccc3c2CC=C3CCN2CCN(C)CC2)cc1` [Compound 22, 1-(2-(7-(4-methoxyphenyl)-1H-inden-3-yl)ethyl)-4-methylpiperazine maleate] registered a Ki of 129 nM.

In the case of `C1=C(CCN2CCN(c3ccccc3)CC2)c2cccc(-c3ccccc3)c2C1` [Compound 6, 1-phenyl-4-(2-(7-phenyl-1H-inden-3-yl)ethyl)piperazine maleate], affinity was put at a Ki of 31 nM.

As for `CN1CCN(CCC2=CCc3c2cccc3-c2ccnc(F)c2)CC1` [Compound 33, 1-(2-(7-(2-fluoropyridin-4-yl)-1H-inden-3-yl)ethyl)-4-methylpiperazine maleate], the affinity, expressed as Ki, was 29 nM.

Consider `CN1CCN(CCC2=CCc3c2cccc3-c2ccccc2)CC1` [Compound 5, 1-methyl-4-(2-(7-phenyl-1H-inden-3-yl)ethyl)piperazine maleate], for which the Ki came out at 13 nM.

`CN1CCN(CCC2=CCc3c2cccc3-c2ccsc2)CC1` [Compound 26, 1-methyl-4-(2-(7-(thiophen-3-yl)-1H-inden-3-yl)ethyl)piperazine maleate] had an inhibition constant (Ki) of 7 nM.

Consider `CN1CCN(CCC2=CCc3c2cccc3-c2cccnc2)CC1` [Compound 35, 1-methyl-4-(2-(7-(pyridin-3-yl)-1H-inden-3-yl)ethyl)piperazine maleate], for which the Ki turned out to be 61 nM.

The compound `CN1CCN(CCC2=CCc3c2cccc3-n2ccnn2)CC1` [Compound 27, 1-(2-(7-(1H-1,2,3-triazol-1-yl)-1H-inden-3-yl)ethyl)-4-methylpiperazine maleate] returned a Ki of 185 nM.

In turn, `C1=C(CCN2CCOCC2)c2cccc(-c3ccccc3)c2C1` [Compound 1, 4-(2-(7-phenyl-1H-inden-3-yl)ethyl)morpholine maleate] yielded a Ki of 3 nM.

Compound `CN1CCN(CCC2=CCc3cc(-c4ccnc(F)c4)ccc32)CC1` [Compound 41, 1-(2-(6-(2-fluoropyridin-4-yl)-1H-inden-3-yl)ethyl)-4-methylpiperazine maleate] registered an inhibitory constant (Ki) of 120 nM.

`CC1=C(CCN2CCN(C)CC2)c2cccc(-c3ccccc3)c2C1` [Compound 12, 1-methyl-4-(2-(2-methyl-7-phenyl-1H-inden-3-yl)ethyl)piperazine maleate] registered a Ki of 51 nM.

As for `COc1ccc(-c2cccc3c2CC=C3CCN2CCN(C)CC2)cn1` [Compound 36, 1-(2-(7-(6-methoxypyridin-3-yl)-1H-inden-3-yl)ethyl)-4-methylpiperazine maleate], the inhibition constant Ki was determined as 37 nM.

As for `Clc1cccc(N2CCN(CCC3=CCc4c3cccc4-c3ccccc3)CC2)c1` [Compound 7, 1-(3-chlorophenyl)-4-(2-(7-phenyl-1H-inden-3-yl)ethyl)piperazine maleate], affinity was put at a Ki of 63 nM.

The compound `Cc1noc(C)c1-c1cccc2c1CC=C2CCN1CCN(C)CC1` [Compound 28, 3,5-dimethyl-4-(3-(2-(4-methylpiperazin-1-yl)ethyl)-1H-inden-7-yl)isoxazole maleate] came in with a Ki of 36 nM.

In turn, `C1=C(CCN2CCC(c3ccccc3)CC2)c2cccc(-c3ccccc3)c2C1` [Compound 10, 4-phenyl-1-(2-(7-phenyl-1H-inden-3-yl)ethyl)piperidine maleate] showed an inhibition constant (Ki) of 13 nM.

With `C1=C(CCN2CCCCC2)c2cccc(-c3ccccc3)c2C1` [Compound 8, 1-(2-(7-phenyl-1H-inden-3-yl)ethyl)piperidine maleate], the Ki is 7 nM.

The compound `C1=C(CCN2CCOCC2)c2cccc(-c3ccsc3)c2C1` [Compound 25, 4-(2-(7-(thiophen-3-yl)-1H-inden-3-yl)ethyl)morpholine maleate] registered an inhibition constant (Ki) of 6 nM.

In turn, `CN1CCN(CCC2=CCc3c2cccc3-c2ccnn2C)CC1` [Compound 38, 1-methyl-4-(2-(7-(1-methyl-1H-pyrazol-5-yl)-1H-inden-3-yl)ethyl)piperazine maleate] had an inhibitory constant (Ki) of 30 nM.

`CN1CCN(CCC2=CCc3c2cccc3-c2ccc(F)cc2)CC1` [Compound 16, 1-(2-(7-(4-fluorophenyl)-1H-inden-3-yl)ethyl)-4-methylpiperazine maleate]: affinity was put at a Ki of 12 nM.

As for `Fc1ccc(-c2cccc3c2CC=C3CCN2CCN(c3ccccc3)CC2)cc1` [Compound 14, 1-(2-(7-(4-fluorophenyl)-1H-inden-3-yl)ethyl)-4-phenylpiperazine maleate], the Ki was 24 nM.

`C1=C(CCN2CCOCC2)c2cccc(-c3ccncc3)c2C1` [Compound 3, 4-(2-(7-(pyridin-4-yl)-1H-inden-3-yl)ethyl)morpholine maleate] displayed a Ki of 47 nM.

`Fc1ccc(-c2cccc3c2CC=C3CCN2CCCCCC2)cc1` [Compound 2, 1-(2-(7-(4-fluorophenyl)-1H-inden-3-yl)ethyl)azepane hydrochloride] gave a Ki of 12 nM.

For the compound `CN1CCN(CCC2=CCc3c2cccc3-c2ccc(Cl)c(Cl)c2)CC1` [Compound 20, 1-(2-(7-(3,4-dichlorophenyl)-1H-inden-3-yl)ethyl)-4-methylpiperazine maleate], the Ki came out at 25 nM.

Consider `COc1ccc(-c2cccc3c2CC=C3CCN2CCOCC2)cn1` [Compound 39, 4-(2-(7-(6-methoxypyridin-3-yl)-1H-inden-3-yl)ethyl)morpholine maleate], for which the affinity corresponds to a Ki of 180 nM.

The compound `Clc1ccc(-c2cccc3c2CC=C3CCN2CCOCC2)cc1Cl` [Compound 19, 4-(2-(7-(3,4-dichlorophenyl)-1H-inden-3-yl)ethyl)morpholine maleate] registered an inhibition constant Ki of 12 nM.

`C1=C(CCN2CCCCCC2)c2cccc(-c3ccccc3)c2C1` [Compound 9, 1-(2-(7-phenyl-1H-inden-3-yl)ethyl)azepane maleate] displayed a Ki of 7 nM.

The compound `CN1CCN(CCC2=CCc3c2cccc3-c2cccc(F)c2)CC1` [Compound 17, 1-(2-(7-(3-fluorophenyl)-1H-inden-3-yl)ethyl)-4-methylpiperazine maleate] displayed an inhibitory constant (Ki) of 14 nM.

Turning to `CN1CCCN(CCC2=CCc3c2cccc3-c2ccncc2)CC1` [Compound 31, 1-methyl-4-(2-(7-(pyridin-4-yl)-1H-inden-3-yl)ethyl)-1,4-diazepane maleate], the affinity, expressed as Ki, was 29 nM.
